Results: patent US20220089592A1, “IMIDAZO[1,2-A]PYRIDINYL DERIVATIVES AS IRAK4 INHIBITORS” (priority 2019, published 2022)

The compounds below were run against T1, IRAK4 (Homo sapiens, UniProt Q9NWZ3) (assay: 2-hour 1 mM ATP IRAK4 Biochemical assay (as above, but with 100 pM IRAK4 and 1 mM ATP)). Settings: IRAK4 MSD BIOCHEMICAL (1 mM ATP) IC50 (μM), 100 pM IRAK4, 2 hours.
T1 sequence (Q9NWZ3 1-460): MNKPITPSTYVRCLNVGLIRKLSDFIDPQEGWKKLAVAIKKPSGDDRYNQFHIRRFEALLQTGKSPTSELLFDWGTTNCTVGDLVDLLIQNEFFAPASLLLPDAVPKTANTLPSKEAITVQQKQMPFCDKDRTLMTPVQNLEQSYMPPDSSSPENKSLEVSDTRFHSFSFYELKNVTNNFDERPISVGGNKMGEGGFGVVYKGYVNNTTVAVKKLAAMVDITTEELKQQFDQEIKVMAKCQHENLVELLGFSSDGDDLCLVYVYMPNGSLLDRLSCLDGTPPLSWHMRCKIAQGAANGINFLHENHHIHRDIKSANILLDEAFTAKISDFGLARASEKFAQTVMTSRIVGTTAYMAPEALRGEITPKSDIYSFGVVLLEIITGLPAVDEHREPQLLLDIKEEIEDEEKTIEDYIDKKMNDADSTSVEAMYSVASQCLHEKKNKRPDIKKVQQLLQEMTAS
Procedure, shortened: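 MSD electrochemiluminescence read-out: biotinylated peptide product bound to streptavidin plates, probed with anti-P-Thr rabbit antibody and Sulfo-Tag goat anti-rabbit. Kinase reaction used 1 mM ATP and 100 pM IRAK4 over 2 hours before EDTA quench.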

IC50	Structure (SMILES)
0.004 µM	COc1nc(NC(=O)c2cccc(C(F)F)n2)cn2cc(C3CCCOC3)nc12 (single isomer, unassigned) [Example 297, 6-(difluoromethyl)-N-(8-methoxy-2-(tetrahydro-2H-pyran-3-yl)imidazo[1,2-a]pyrazin-6-yl)picolinamide]
0.008 µM	CCOc1nc(NC(=O)c2cccc(C(F)F)n2)cn2cc(C3CCOCC3)nc12 [Example 475, 6-(difluoromethyl)-N-(8-ethoxy-2-(tetrahydro-2H-pyran-4-yl)imidazo[1,2-a]pyrazin-6-yl)picolinamide 2,2,2-trifluoroacetate]
0.004 µM	COc1cc(NC(=O)c2cccc(C(F)F)n2)cn2cc(C3CCCOC3)nc12 (single isomer, unassigned) [Example 269, 6-(difluoromethyl)-N-(8-methoxy-2-(tetrahydro-2H-pyran-3-yl)imidazo[1,2-a]pyridin-6-yl)picolinamide]
0.006 µM	COc1nc(NC(=O)c2cccc(C(F)F)n2)cn2cc(C3CC4(CCOC4)C3)nc12 (stereo not drawn) [Example 557, 6-(difluoromethyl)-N-(8-methoxy-2-(6-oxaspiro[3.4]octan-2-yl)imidazo[1,2-a]pyrazin-6-yl)picolinamide 2,2,2-trifluoroacetate]
0.001 µM	O=C(Nc1cn2cc(C3CCOCC3)nc2cc1OCC1CCCOC1)c1cccc(C(F)F)n1 (stereo not drawn) [Example 193, 6-(difluoromethyl)-N-(7-((tetrahydro-2H-pyran-3-yl)methoxy)-2-(tetrahydro-2H-pyran-4-yl)imidazo[1,2-a]pyridin-6-yl)picolinamide]
0.006 µM	O=C(Nc1cn2cc(C3CCOCC3)nc2cc1Cl)c1cccc(C(F)F)n1 [Example 405, N-(7-chloro-2-(tetrahydro-2H-pyran-4-yl)imidazo[1,2-a]pyridin-6-yl)-6-(difluoromethyl)picolinamide 2,2,2-trifluoroacetate]
0.001 µM	CC(C)Oc1cc2nc(C3CC3)cn2cc1NC(=O)c1cccc(C(F)F)n1 [Example 526, N-(2-cyclopropyl-7-isopropoxyimidazo[1,2-a]pyridin-6-yl)-6-(difluoromethyl)picolinamide]
0.055 µM	O=C(Nc1cn2cc(C3CCOCC3)nc2c(N2CCCC2)n1)c1cccc(C(F)F)n1 [Example 342, 6-(difluoromethyl)-N-(8-(pyrrolidin-1-yl)-2-(tetrahydro-2H-pyran-4-yl)imidazo[1,2-a]pyrazin-6-yl)picolinamide]
0.005 µM	COc1nc(NC(=O)c2cccc(C(F)(F)F)n2)cn2cc(C3CCCOC3)nc12 (single isomer, unassigned) [Example 300, N-(8-methoxy-2-(tetrahydro-2H-pyran-3-yl)imidazo[1,2-a]pyrazin-6-yl)-6-(trifluoromethyl)picolinamide]

Second part, the compound before the results:

Structure (SMILES)	IC50
CC12CC(c3cn4cc(NC(=O)c5cccc(C(F)F)n5)ccc4n3)(CO1)C2 [Example 357, 6-(difluoromethyl)-N-(2-(1-methyl-2-oxabicyclo[2.1.1]hexan-4-yl)imidazo[1,2-a]pyridin-6-yl)picolinamide]	0.03 µM
CC(C)Oc1c(NC(=O)c2cccc3ncnn23)cn2cc(C34COC(C)(C3)C4)nc2c1F [Example 434, N-(8-fluoro-7-isopropoxy-2-(1-methyl-2-oxabicyclo[2.1.1]hexan-4-yl)imidazo[1,2-a]pyridin-6-yl)-[1,2,4]triazolo[1,5-a]pyridine-5-carboxamide]	0.004 µM
O=C(Nc1cn2cc(C3CCOCC3)nc2c(OCC(F)(F)F)n1)c1cccc(C(F)F)n1 [Example 303, 6-(difluoromethyl)-N-(2-(tetrahydro-2H-pyran-4-yl)-8-(2,2,2-trifluoroethoxy)imidazo[1,2-a]pyrazin-6-yl)picolinamide]	0.038 µM
CCOc1cc2nc(CC3CCS(=O)(=O)C3)cn2cc1NC(=O)c1cccc(C(F)F)n1 (stereo not drawn) [Example 257, 6-(difluoromethyl)-N-(2-((1,1-dioxidotetrahydrothiophen-3-yl)methyl)-7-ethoxyimidazo[1,2-a]pyridin-6-yl)picolinamide]	0.001 µM
CCC(C)Oc1c(NC(=O)c2cccnc2OC)cn2cc(C34COC(C)(C3)C4)nc2c1F (stereo not drawn) [Example 326, N-(7-(sec-butoxy)-8-fluoro-2-(1-methyl-2-oxabicyclo[2.1.1]hexan-4-yl)imidazo[1,2-a]pyridin-6-yl)-2-methoxynicotinamide]	0.012 µM
CC(C)Oc1c(NC(=O)c2coc(C(F)F)n2)cn2cc(C34COC(C)(C3)C4)nc2c1F [Example 430, 2-(difluoromethyl)-N-(8-fluoro-7-isopropoxy-2-(1-methyl-2-oxabicyclo[2.1.1]hexan-4-yl)imidazo[1,2-a]pyridin-6-yl)oxazole-4-carboxamide 2,2,2-trifluoroacetate]	0.008 µM
CCOc1cc2nc(C3CN(CC(F)(F)F)C3)cn2cc1NC(=O)c1cccc(C(F)F)n1 [Example 77, 6-(difluoromethyl)-N-(7-ethoxy-2-(1-(2,2,2-trifluoroethyl)azetidin-3-yl)imidazo[1,2-a]pyridin-6-yl)picolinamide]	0.001 µM
O=C(Nc1cn2cc(C3CC4(CCOC4)C3)nc2cn1)c1cccc(C(F)F)n1 (stereo not drawn) [Example 273, N-(2-(6-oxaspiro[3.4]octan-2-yl)imidazo[1,2-a]pyrazin-6-yl)-6-(difluoromethyl)picolinamide]	0.02 µM
CCOc1cc2nc(CCCOC)cn2cc1NC(=O)c1cccc(C(F)F)n1 [Example 12, 6-(difluoromethyl)-N-(7-ethoxy-2-(3-methoxypropyl)imidazo[1,2-a]pyridin-6-yl)picolinamide]	0.001 µM
COc1ccccc1C(=O)Nc1cn2cc(C34CC(C#N)(C3)C4)nc2cc1OC(C)C [Example 311, N-(2-(3-cyanobicyclo[1.1.1]pentan-1-yl)-7-isopropoxyimidazo[1,2-a]pyridin-6-yl)-2-methoxybenzamide]	0.006 µM
COc1nc2nc(C34CC(F)(C3)C4)cn2cc1NC(=O)c1cccc(C(F)F)n1 [Example 566, 6-(difluoromethyl)-N-(2-(3-fluorobicyclo[1.1.1]pentan-1-yl)-7-methoxyimidazo[1,2-a]pyrimidin-6-yl)picolinamide 2,2,2-trifluoroacetate]	0.054 µM
COc1ncccc1C(=O)Nc1cn2cc(C34COC(C)(C3)C4)nc2nc1OC1CC1 [Example 505, N-(7-cyclopropoxy-2-(1-methyl-2-oxabicyclo[2.1.1]hexan-4-yl)imidazo[1,2-a]pyrimidin-6-yl)-2-methoxynicotinamide 2,2,2-trifluoroacetate]	0.007 µM
COc1ncccc1C(=O)Nc1cn2cc(C34CCC(C)(C3)OC4)nc2c(OC)n1 (stereo not drawn) [Example 468, 2-methoxy-N-(8-methoxy-2-(1-methyl-2-oxabicyclo[2.2.1]heptan-4-yl)imidazo[1,2-a]pyrazin-6-yl)nicotinamide 2,2,2-trifluoroacetate]	0.022 µM
CC12CC(c3cn4cc(NC(=O)c5cccc6ccnn56)cc(OC(F)F)c4n3)(CO1)C2 [Example 422, N-(8-(difluoromethoxy)-2-(1-methyl-2-oxabicyclo[2.1.1]hexan-4-yl)imidazo[1,2-a]pyridin-6-yl)pyrazolo[1,5-a]pyridine-7-carboxamide 2,2,2-trifluoroacetate]	0.012 µM
COc1nc(NC(=O)c2cccc3ccnn23)cn2cc(C34COC(C)(C3)C4)nc12 [Example 442, N-(8-methoxy-2-(1-methyl-2-oxabicyclo[2.1.1]hexan-4-yl)imidazo[1,2-a]pyrazin-6-yl)pyrazolo[1,5-a]pyridine-7-carboxamide]	0.024 µM
